The results in this text go back to publication PMC2801607 (Bioorganic & medicinal chemistry letters, 2009).

Where two headings read alike, the source gives them in different places.

The target of one experiment is T1, CD45 (Homo sapiens, UniProt P08575).
T1 sequence (P08575 26-1306): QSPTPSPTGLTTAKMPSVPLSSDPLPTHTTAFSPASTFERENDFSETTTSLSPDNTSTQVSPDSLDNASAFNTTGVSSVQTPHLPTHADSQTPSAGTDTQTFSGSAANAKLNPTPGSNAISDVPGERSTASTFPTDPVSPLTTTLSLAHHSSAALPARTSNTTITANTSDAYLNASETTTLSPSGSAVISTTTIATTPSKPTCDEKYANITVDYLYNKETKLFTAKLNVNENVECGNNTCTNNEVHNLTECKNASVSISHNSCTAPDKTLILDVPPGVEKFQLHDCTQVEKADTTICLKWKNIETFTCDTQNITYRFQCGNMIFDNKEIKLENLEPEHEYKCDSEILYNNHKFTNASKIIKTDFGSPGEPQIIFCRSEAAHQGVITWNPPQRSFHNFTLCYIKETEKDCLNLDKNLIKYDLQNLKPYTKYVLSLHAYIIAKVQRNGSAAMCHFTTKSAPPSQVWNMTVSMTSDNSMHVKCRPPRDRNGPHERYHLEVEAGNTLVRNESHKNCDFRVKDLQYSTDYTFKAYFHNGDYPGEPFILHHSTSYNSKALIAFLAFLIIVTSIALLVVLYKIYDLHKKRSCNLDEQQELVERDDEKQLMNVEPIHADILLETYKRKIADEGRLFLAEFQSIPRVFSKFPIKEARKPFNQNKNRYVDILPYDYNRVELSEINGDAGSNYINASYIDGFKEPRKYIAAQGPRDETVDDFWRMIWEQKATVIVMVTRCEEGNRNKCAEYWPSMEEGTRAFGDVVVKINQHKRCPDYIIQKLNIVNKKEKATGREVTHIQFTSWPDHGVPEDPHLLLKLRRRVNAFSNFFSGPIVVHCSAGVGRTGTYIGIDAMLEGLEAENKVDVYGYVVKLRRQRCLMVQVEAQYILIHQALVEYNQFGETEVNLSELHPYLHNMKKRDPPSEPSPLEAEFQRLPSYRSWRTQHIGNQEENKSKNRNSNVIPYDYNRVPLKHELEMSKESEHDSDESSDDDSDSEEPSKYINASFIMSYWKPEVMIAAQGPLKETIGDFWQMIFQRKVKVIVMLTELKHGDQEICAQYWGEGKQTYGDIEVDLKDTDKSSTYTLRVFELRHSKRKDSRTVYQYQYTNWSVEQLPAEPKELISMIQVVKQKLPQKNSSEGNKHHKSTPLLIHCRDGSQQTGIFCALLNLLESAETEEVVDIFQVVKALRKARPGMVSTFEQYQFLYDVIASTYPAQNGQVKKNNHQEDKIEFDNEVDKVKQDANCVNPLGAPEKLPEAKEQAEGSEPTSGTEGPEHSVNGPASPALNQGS
In words: Selectivity panel: CD45 inhibition. It is filed as biochemical.

The target in the next experiment is LAR (Homo sapiens, UniProt P10586). In words: Selectivity panel: LAR inhibition. It is filed as biochemical.
Another experiment addresses T2, Tc-Ptp (Homo sapiens, UniProt P17706).
T2 sequence (P17706 1-415): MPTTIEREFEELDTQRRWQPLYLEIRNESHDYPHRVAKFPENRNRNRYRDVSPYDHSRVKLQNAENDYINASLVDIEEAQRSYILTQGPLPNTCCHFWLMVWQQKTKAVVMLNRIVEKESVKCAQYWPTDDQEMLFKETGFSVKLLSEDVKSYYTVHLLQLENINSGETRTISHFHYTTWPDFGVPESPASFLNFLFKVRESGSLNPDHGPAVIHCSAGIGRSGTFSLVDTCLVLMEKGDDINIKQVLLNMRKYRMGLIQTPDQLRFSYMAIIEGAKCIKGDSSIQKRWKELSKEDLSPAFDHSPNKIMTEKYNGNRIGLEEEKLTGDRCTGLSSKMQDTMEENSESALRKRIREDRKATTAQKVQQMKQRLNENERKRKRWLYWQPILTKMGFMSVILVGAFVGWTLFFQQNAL
In words: Selectivity panel: Tc-Ptp inhibition. It is filed as biochemical.

The next experiment has as its target VHR (Homo sapiens, UniProt P51452). In words: Selectivity panel: VHR inhibition. It is filed as biochemical.
In another experiment the target is T3, PTP1B (Homo sapiens, UniProt P18031).
T3 sequence (P18031 1-435): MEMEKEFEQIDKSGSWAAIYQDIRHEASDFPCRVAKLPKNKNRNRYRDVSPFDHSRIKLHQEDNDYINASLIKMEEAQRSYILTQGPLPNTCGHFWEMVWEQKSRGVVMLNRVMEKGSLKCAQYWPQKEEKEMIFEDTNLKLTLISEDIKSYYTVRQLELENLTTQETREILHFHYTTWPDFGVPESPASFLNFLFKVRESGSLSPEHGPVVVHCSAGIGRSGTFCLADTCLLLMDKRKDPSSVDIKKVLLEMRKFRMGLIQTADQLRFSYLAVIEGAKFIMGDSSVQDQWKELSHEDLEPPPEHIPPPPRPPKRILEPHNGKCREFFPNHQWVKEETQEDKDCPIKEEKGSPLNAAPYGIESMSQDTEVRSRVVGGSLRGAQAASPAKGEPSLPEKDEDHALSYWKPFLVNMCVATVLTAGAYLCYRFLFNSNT
In words: Selectivity panel: PTP1B inhibition. It is filed as biochemical.

In experiment [1] the test system is panel of human tyrosine and dual-specificity phosphatases. It is filed as biochemical.
Experiment [2] has as its target Mycobacterium tuberculosis phosphatase PtpA (Mycobacterium tuberculosis, UniProt P9WIA1). In words: PtpA continuous inhibition assay with pNPP substrate. It is filed as biochemical. The following applies: PtpA dose-response curve, variable slope (GraphPad Prism).
Experiment [3] relates to Mtb PtpB. The experiment is described as follows: biochemical. It is filed as biochemical, Mycobacterium tuberculosis.
The target in experiment [4] is Mtb PtpB (Mycobacterium tuberculosis, UniProt I6WXK4). In words: biochemical. It is filed as biochemical.
Sequence of Mtb PtpB (Mycobacterium tuberculosis, UniProt I6WXK4) (I6WXK4 whole entry, looked up): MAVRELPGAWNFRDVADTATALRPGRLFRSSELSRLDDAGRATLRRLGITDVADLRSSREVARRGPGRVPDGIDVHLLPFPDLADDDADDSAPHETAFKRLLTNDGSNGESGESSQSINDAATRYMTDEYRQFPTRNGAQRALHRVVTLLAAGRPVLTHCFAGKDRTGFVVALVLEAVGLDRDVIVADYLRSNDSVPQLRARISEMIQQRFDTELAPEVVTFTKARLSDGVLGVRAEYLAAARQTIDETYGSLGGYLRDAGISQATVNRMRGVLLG

Sequence of Mycobacterium tuberculosis phosphatase PtpA (P9WIA1 whole entry): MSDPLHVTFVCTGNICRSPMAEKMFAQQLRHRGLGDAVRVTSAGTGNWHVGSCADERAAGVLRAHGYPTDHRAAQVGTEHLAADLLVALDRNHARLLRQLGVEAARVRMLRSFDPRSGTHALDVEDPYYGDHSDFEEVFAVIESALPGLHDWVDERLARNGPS
Sequence of VHR (P51452 whole entry): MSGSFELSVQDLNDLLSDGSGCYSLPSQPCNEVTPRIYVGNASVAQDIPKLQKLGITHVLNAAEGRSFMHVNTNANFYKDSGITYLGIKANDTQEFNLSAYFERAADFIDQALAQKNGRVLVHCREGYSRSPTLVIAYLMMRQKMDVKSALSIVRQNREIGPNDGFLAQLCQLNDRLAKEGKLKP
Sequence of LAR (P10586 30-1907): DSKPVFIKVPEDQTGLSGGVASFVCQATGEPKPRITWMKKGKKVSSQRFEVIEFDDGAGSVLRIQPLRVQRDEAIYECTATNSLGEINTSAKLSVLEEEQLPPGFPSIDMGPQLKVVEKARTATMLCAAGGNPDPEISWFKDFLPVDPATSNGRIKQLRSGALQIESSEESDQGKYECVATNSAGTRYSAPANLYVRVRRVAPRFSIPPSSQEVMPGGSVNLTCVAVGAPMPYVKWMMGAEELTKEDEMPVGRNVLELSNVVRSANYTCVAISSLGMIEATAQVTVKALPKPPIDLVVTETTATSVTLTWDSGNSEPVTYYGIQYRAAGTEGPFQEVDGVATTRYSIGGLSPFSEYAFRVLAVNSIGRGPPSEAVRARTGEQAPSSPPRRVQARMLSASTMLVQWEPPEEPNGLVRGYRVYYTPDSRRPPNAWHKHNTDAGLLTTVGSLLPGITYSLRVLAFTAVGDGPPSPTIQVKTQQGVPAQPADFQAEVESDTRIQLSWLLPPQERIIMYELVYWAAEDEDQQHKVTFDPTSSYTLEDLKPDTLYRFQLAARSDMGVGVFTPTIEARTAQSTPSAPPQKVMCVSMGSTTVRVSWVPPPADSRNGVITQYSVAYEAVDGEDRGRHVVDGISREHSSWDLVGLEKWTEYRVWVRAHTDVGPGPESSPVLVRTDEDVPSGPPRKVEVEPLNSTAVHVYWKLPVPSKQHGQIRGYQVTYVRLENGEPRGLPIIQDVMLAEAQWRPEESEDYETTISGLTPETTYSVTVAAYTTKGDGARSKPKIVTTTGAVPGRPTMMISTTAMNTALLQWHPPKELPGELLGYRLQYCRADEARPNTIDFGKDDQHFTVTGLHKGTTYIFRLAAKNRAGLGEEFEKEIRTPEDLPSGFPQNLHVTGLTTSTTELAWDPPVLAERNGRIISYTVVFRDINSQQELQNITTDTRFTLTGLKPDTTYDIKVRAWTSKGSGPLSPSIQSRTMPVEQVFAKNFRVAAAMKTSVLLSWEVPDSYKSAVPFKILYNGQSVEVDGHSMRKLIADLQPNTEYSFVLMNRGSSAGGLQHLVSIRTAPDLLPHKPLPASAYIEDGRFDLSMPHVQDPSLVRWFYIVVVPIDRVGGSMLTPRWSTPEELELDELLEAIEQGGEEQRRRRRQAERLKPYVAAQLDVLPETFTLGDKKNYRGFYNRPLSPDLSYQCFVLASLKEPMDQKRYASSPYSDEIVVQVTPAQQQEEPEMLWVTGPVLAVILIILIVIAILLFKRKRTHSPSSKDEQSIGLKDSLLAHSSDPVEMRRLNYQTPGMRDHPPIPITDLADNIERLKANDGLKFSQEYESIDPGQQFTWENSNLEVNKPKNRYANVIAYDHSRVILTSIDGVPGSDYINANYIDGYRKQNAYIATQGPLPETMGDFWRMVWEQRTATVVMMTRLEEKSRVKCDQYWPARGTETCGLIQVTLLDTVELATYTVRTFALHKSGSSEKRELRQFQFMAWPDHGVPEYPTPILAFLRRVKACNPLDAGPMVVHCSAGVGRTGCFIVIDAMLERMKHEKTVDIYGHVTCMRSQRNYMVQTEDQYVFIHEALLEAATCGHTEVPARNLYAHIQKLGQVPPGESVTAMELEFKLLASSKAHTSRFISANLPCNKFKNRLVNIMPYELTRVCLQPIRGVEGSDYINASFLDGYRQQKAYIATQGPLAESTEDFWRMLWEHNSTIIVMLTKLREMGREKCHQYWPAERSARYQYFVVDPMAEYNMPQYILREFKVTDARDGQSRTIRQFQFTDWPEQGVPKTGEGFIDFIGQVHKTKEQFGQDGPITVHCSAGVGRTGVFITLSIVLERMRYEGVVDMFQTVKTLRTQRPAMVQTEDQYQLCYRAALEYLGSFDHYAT

For `O=C(Nc1cc(C(F)(F)F)c(Br)c(C(F)(F)F)c1)c1ccc(C(F)(F)P(=O)(O)O)cc1` [Compound 38], the Selectivity at CD45, at LAR, at Tc-Ptp, on VHR, at PTP1B and in the experiment on Mtb PtpB [3] was above 70 in each case. In addition, the “Selectivity for PtpA versus panel of phosphatases” value in experiment [1] was above 70 fold. The Hill coefficient h in experiment [2] was −1.0 ± 0.1. The figures for the Ki at Mtb PtpB [4] and at Mtb PtpB [4] (PtpB) were above 100 µM and “did not inhibit”, respectively.
`O=C(Nc1ccc(C(F)(F)P(=O)(O)O)cc1)Nc1cc(C(F)(F)F)cc(C(F)(F)F)c1` [Compound 43] gave a Hill coefficient h in [2] of −1.1 ± 0.2.

What is called Ki is the equilibrium dissociation constant of an inhibitor or competing ligand from its target. A high value points to weaker binding.
